# Measurements from patent US8173131B2, “Compositions and methods for modulating RSV infection and immunity” (PerkinElmer Health Sciences, Inc., priority 2000, dated 2012).
# Where two headings read alike, the source gives them in different places.
# Key:
# [1] = test system: G glycoprotein binding to 293-CX3CR1 cells; set-up: species or system human; conditions: for percent staining of G glycoprotein on CX3CR1-293 cells in the presence of peptide: 10 nM G glycoprotein, 84% without peptide, FIG. 1
# Method: All binding studies were done on ice and either G glycoprotein or human Fkn (R&D Diagnostics, Minneapolis, Minn.) were diluted between 1 nM-100 nM in PBS (GIBCO) containing 1% bovine serum albumin (Sigma) and incubated with the 293-CX3CR1 cells or 293 control cells for 30 min at 4° C. […] Without washing, 100 pM of either Fkn or G glycoprotein was added and incubated for 30 min at 4° C. The cells were washed, blocked with FcγRIII blocking antibody (HB197) for 30 min on ice, washed and stained as appropriate with either an anti-G glycoprotein monoclonal antibody cocktail (132-5B, 132-5G, 130-2G, 232-IF) or a biotinylated anti-G glycoprotein monoclonal antibody cocktail (130-2G, 131-2G) or anti-Fkn monoclonal antibody (51637.11; R&D Diagnostics). Concentrations of 1 μg of anti-G glycoprotein monoclonal antibody (131-2G)^34, rabbit anti-CX3CR1 sera^33, and anti-CX3CR1 monoclonal antibody containing 10 μg/ml heparin were used in all experiments. […] Staining was detected with absorbed FITC-goat anti-mouse (H & L chain) monoclonal antibody (PharMingen, San Diego, Calif.) or streptavidin-PE (PharMingen) using flow cytometry (FACScan, Becton-Dickinson, Mountain View, Calif.). A 76 amino acid ^125I-Fkn polypeptide comprising the […] (NEN, Boston, Mass.) was used in radioligand studies^33. As a control, the void volume following purified G glycoprotein passaged over an anti-G glycoprotein antibody (130-2G) affinity column was examined by flow cytometry for binding to either 293 or 293-CX3CR1 cells.
# (§1) For peptide inhibition studies, a series of G glycoprotein peptides were identified in the amino acid sequence of the A2 strain of RSV (GENBANK, attachment protein locus 1912305, Table 4). The peptides were synthesized using a simultaneous, multiple solid-phase peptide synthesis method on a peptide synthesizer (Perkin-Elmer Applied Biosystems, Berkeley, Calif.), and tested for homogeneity by reverse-phase liquid chromatography and capillary electrophoresis (www.biotech.cdc.gov/protein/methods). Inhibition assays were performed as described for the binding studies above.
# (§2) To determine if G glycoprotein bound 293-CX3CR1 cells via CX3CR1, the ability of four reagents (anti-CX3CR1 rabbit antiserum, anti-CX3CR1 monoclonal antibody (2A9-1), Fkn and a 76 amino acid 125-I-Fkn polypeptide containing the CX3C domain) that bind to CX3CR1 to block G glycoprotein binding to 293-CX3CR1 cells was examined. In addition, to determine if binding of G glycoprotein to 293-CX3CR1 cells was dependent upon the CX3C motif, G glycoprotein peptides with a single residue insertion (Δ+1) or deletion (Δ−1) in the CX3C motif and also peptides that lacked or included the CX3C motif (Table 4) were generated. This panel of peptides was analyzed for their ability to block G glycoprotein or Fkn binding to 293-CX3CR1 cells.
# (§3) Inhibition of Fkn and G glycoprotein binding to 293-CX3CR1 cells by treatment with monoclonal antibodies to G glycoprotein or CX3CR1, or treatment with G glycoprotein, Fkn, or G glycoprotein peptides in the presence or absence of heparin as described in Methods. […] The concentration of G glycoprotein was estimated using a molecular weight of 90 kD.
# [2] = target: T1, Fkn binding to 293-CX3CR1 cells (Homo sapiens, UniProt P49238); conditions: no heparin
# T1 construct: host or cells: HEK 293 cells stably transfected with CX3CR1
# T1 sequence (P49238 whole entry): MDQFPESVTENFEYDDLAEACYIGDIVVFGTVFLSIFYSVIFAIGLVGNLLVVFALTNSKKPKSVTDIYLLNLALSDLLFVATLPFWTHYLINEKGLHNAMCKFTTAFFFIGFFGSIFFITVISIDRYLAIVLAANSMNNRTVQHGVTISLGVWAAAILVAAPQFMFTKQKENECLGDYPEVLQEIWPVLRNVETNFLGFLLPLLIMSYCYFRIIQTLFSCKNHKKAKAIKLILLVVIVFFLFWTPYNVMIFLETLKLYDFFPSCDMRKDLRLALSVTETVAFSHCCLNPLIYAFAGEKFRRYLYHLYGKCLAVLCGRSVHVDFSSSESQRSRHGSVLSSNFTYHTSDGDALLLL
# Method: All binding studies were done on ice and either G glycoprotein or human Fkn (R&D Diagnostics, Minneapolis, Minn.) were diluted between 1 nM-100 nM in PBS (GIBCO) containing 1% bovine serum albumin (Sigma) and incubated with the 293-CX3CR1 cells or 293 control cells for 30 min at 4° C. […] For inhibition studies, 100 pM-1 μM human Fkn or G glycoprotein was preincubated with the cells for 30 min at 4° C. Without washing, 100 pM of either Fkn or G glycoprotein was added and incubated for 30 min at 4° C. The cells were washed, blocked with FcγRIII blocking antibody (HB197) for 30 min on ice, washed and stained as appropriate with either an anti-G glycoprotein monoclonal antibody cocktail (132-5B, 132-5G, 130-2G, 232-IF) or a biotinylated anti-G glycoprotein monoclonal antibody cocktail (130-2G, 131-2G) or anti-Fkn monoclonal antibody (51637.11; R&D Diagnostics). Concentrations of 1 μg of anti-G glycoprotein monoclonal antibody (131-2G)^34, rabbit anti-CX3CR1 sera^33, and anti-CX3CR1 monoclonal antibody containing 10 μg/ml heparin were used in all experiments. […] Staining was detected with absorbed FITC-goat anti-mouse (H & L chain) monoclonal antibody (PharMingen, San Diego, Calif.) or streptavidin-PE (PharMingen) using flow cytometry (FACScan, Becton-Dickinson, Mountain View, Calif.). A 76 amino acid ^125I-Fkn polypeptide comprising the […] (NEN, Boston, Mass.) was used in radioligand studies^33. As a control, the void volume following purified G glycoprotein passaged over an anti-G glycoprotein antibody (130-2G) affinity column was examined by flow cytometry for binding to either 293 or 293-CX3CR1 cells.
# as §1, §2, §3
# RSV = RSV plaque reduction assay on Vero cells (Example 1); type: cell-based, RSV/A2
# Method: Dilutions of Fkn (R&D systems), SDF-1 α (R&D systems), G glycoprotein, heparin (Sigma), G glycoprotein peptides and anti-CX3CR1 antibody were made in serum-free Dulbecco's Modified Eagle's Media (DMEM; GIBCO) containing 1% BSA (Sigma) and preincubated with the Vero cells for 1 h at 37° C. 50 μg of anti-CX3CR1 antibody or heat-inactivated (56° C., 30 min) normal rabbit sera (control) were used in all experiments. […] Dilutions of RSV were made in serum-free DMEM (GIBCO) and added to pretreated Vero cells for 2 h at 37° C. Following virus infection, DMEM (GIBCO) containing 10% FBS (Hyclone, Logan, Utah) was added to the wells. Plaques were enumerated using immunostaining for F and G glycoproteins using biotinylated monoclonal antibodies 131-2A (anti-F glycoprotein) and 130-2G (anti-G glycoprotein) as described^45.
# RSV plaque reduction following treatment with G glycoprotein, Fkn, G glycoprotein peptides, anti-CX3CR1 antibody, SDF-1-α and/or heparin as described in Methods. Percent inhibition was determined from the mean plaque forming units (pfu) of treated Vero cells over saline-treated Vero cells using a dilution of RSV that would produce 40-80 pfu. p-values were determined using unpaired two-tailed analysis where p<0.05 is significant. The concentration of G glycoprotein was estimated using a molecular weight of 90 kD.
molecule,measurement,setting,value
VPCSICSNNPTC [RT32],Range of Inhibition (%) of G glycoprotein binding,"[1]; inhibitor 1 μM, no heparin",8-14%
same,Range of Inhibition (%) of Fkn binding,[2]; inhibitor 1 μM,6-12%
same,plaque inhibition (%),RSV; 1 μM,2%
TCWAIACKRIPNK [Δ + 1],percent staining of G glycoprotein on CX3CR1-293 cells in the presence of peptide,[1],65%
same,Range of Inhibition (%) of G glycoprotein binding,"[1]; inhibitor 1 μM, no heparin",16-22%
same,Range of Inhibition (%) of Fkn binding,[2]; inhibitor 1 μM,0-8%
same,plaque inhibition (%),RSV; 1 μM,30%
"Fkn: CX3C chemokine fractalkine (R&D), ligand of CX3CR1 [reference compound]",Range of Inhibition (%) of G glycoprotein binding,[1]; heparin 5 μg/ml + Fractalkine 10 nM,85-98%
same,Range of Inhibition (%) of G glycoprotein binding,"[1]; inhibitor 100 pM, no heparin",2-5%
same,Range of Inhibition (%) of G glycoprotein binding,"[1]; inhibitor 10 nM, no heparin",8-15%
same,Range of Inhibition (%) of G glycoprotein binding,"[1]; inhibitor 1 μM, no heparin",20-34%
same,plaque inhibition (%),RSV; 100 pM,0%
same,plaque inhibition (%),RSV; 1 nM,31%
same,plaque inhibition (%),RSV; 10 nM,80%
same,plaque inhibition (%),RSV; heparin 5 μg/ml + Fkn 10 nM,97%
TCWAICKRIPNK [RT33],Range of Inhibition (%) of G glycoprotein binding,[1]; heparin 5 μg/ml + peptide 1 μM,85-94%
same,Range of Inhibition (%) of G glycoprotein binding,"[1]; inhibitor 1 μM, no heparin",35-42%
same,Range of Inhibition (%) of Fkn binding,[2]; inhibitor 1 μM,18-27%
same,plaque inhibition (%),RSV; 1 μM,71%
same,plaque reduction by peptide alone,RSV; concentration not stated,16%
same,plaque inhibition (%),RSV; heparin 5 μg/ml + peptide 1 μM,92%
TCWACKRIPNK (TCWAIACKRIPNK) [Δ − 1],percent staining of G glycoprotein on CX3CR1-293 cells in the presence of peptide,[1],73%
same,Range of Inhibition (%) of G glycoprotein binding,"[1]; inhibitor 1 μM, no heparin",8-12%
same,Range of Inhibition (%) of Fkn binding,[2]; inhibitor 1 μM,0-4%
same,plaque inhibition (%),RSV; 1 μM,0%
NKKPGKKTTTKP [RT34],Range of Inhibition (%) of G glycoprotein binding,"[1]; inhibitor 1 μM, no heparin",4-18%
same,Range of Inhibition (%) of Fkn binding,[2]; inhibitor 1 μM,6-14%
same,plaque inhibition (%),RSV; 1 μM,6%
G glycoprotein: purified G glycoprotein isolated from RSV/A2-infected Vero cells (protein) MSKNKDQRTAKTLERTWDTLNHLLFISSCLYKLNLKSVAQITLSILAMIISTSLIIAAIIFIASANHKVTPTTAIIQDATSQIKNTTPTYLTQNPQLGISPSNPSEITSQITTILASTTPGVKSTLQSTTVKTKNTTTTQTQPSKPTTKQRQNKPPSKPNNDFHFEVFNFVPCSICSNNPTCWAICKRIPNKKPGKKTTTKPTKKPTLKTTKKDPKPQTTKSKEVPTTKPTEEPTINTTKTNIITTLLTSNTTGNPELTSQMETFHSTSSEGNPSPSQVSTTSEYPSQPSSPPNTPRQ,Range of Inhibition (%) of Fkn binding,[2]; inhibitor 100 pM,5-8%
same,Range of Inhibition (%) of Fkn binding,[2]; inhibitor 10 nM,32-38%
same,Range of Inhibition (%) of Fkn binding,[2]; inhibitor 1 μM,50-58%
same,plaque inhibition (%),RSV; 1 nM,0%
same,plaque inhibition (%),RSV; 10 nM,49%
same,plaque inhibition (%),RSV; 100 nM,61%
same,plaque inhibition (%),RSV; heparin 5 μg/ml + G glycoprotein 100 nM,98%
